Results reported in patent US20040116420A1 (priority 2001, published 2004).

Key:
[1] = biological target: T1, HSV-1 protease (Human herpesvirus 1, UniProt P10210); assay: Enzymatic assay for HSV-1 protease (assembly) inhibitor, fluorescence polarization; assay type: biochemical; conditions: read-out: HSV-1 Enzyme inhibition IC50
T1 construct: 6xHis (N); made in house; host or cells: baculovirus expression system
How it was run: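 Fluorescence polarization read-out: after avidin stop, cleavage of a biotinylated DTAF-labelled release-site peptide by recombinant N-His6 HSV-1 protease was compared with no-inhibitor wells. Enzyme and compound were preincubated 30 min, then substrate reacted 60 min, all at room temperature, pH 7.4 citrate buffer with TCEP.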

[2] = Human plasma stability; assay type: in vitro ADME
Description: An Assay Method for Human Plasma Stability Human plasma was thawed, 200 μl each thereof was placed in each cell of a 96-well plate immediately thereafter, and 4 μl of solution of each test compound in 1 mM DMF was added thereto. A microplate reader for fluorescence absorption was used to assay changes in fluorescence, and half life was determined based on the changes.

T1 sequence (P10210 1-247): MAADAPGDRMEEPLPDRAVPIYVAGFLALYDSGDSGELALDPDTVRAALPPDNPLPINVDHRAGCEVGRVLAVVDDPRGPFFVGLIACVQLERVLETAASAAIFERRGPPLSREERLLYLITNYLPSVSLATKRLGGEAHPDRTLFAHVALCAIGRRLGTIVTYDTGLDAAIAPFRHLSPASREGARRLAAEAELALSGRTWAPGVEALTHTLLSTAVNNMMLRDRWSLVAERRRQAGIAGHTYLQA

Cc1c(NC(=O)OC(C)(C)C)ccc2nc(NC(C)(C)C(=O)N(C)CCc3ccccn3)oc(=O)c12 [Compound No.18, (5-methyl-2-{1-methyl-1-[methyl-(2-pyridin-2-yl-ethyl)-carbamoyl]-ethylamino}-4-oxo-4H-benzo[d][1,3]oxazin-6-yl)-carbamic Acid Tert-Butyl Ester]
IC50 [1]: 400 nM | half-life at 19.6 μM [2]: 2.83 h
